Measurements: patent publication US8945832B2, “Treatment prediction involving HMGCR” (Atlas Antibodies AB, priority 2008, dated 2015)
Like-named read-outs stand apart in the source and are kept apart here.

Tests used:
[1] = system: MCF-7 breast cancer cells; conditions: MCF-7 cells; cited from earlier work
[2] = system: breast cancer; conditions: 5 years tamoxifen compared to no adjuvant treatment; cited from earlier work
[3] = system: primary breast tumors; experiment: Gene expression analysis of breast cancer: RFS by HMGCR mRNA level in tamoxifen treated patients (GSE 9893); format: in vivo, human
Description: Data was collected from a previously performed microarray study, Chanrion et al, based on a patient cohort of 155 primary breast tumors obtained from patients who had undergone initial surgery between 1989 and 2001 at the Cancer Research Center of Val d'Aurelle in Montpellier, the Bergonie' Institute in Bordeaux, or the Department of Obstetrics and Gynecology of Turin.
The median follow-up time for all patients was 5.5 years. Eight tumors were ER negative, and six of these tumors were progesterone receptor (PR) positive. No patient received neoadjuvant systemic chemotherapy. […] 121 patients also received adjuvant radiotherapy. Raw gene expression data and clinical data were downloaded from Gene Expression Omnibus (http://www.ncbi.nlm.nih.gov/GEO/) (accession number GSE 9893). The log ratio of gene expression values was used without further transformation. For statistical analysis HMGCR mRNA expression levels were analysed as a continuous variable.

[4] = system: breast cancer; conditions: cited from earlier work
[5] = system: stage II invasive breast cancer; experiment: Randomized premenopausal cohort: recurrence free survival, adjuvant tamoxifen vs no adjuvant endocrine treatment, by HMGCR protein status (IHC on TMA); format: in vivo, human; conditions: for outcome (RFS) of HMGCR positive and ER negative vs HMGCR negative and ER positive patients: tamoxifen treated cohort
Method: The inclusion criteria were pre-menopausal patients, or patients younger than 50 years, with stage II (pT2 N0 M0, pT1-2 N1 M0) invasive breast cancer treated by modified mastectomy or breast conserving surgery with axillary lymph node dissection. Post-operative radiotherapy (50 Gy) was administered after breastconserving surgery and all lymph node-positive patients received locoregional radiotherapy. […] The study design is described in detail elsewhere (Rydén L et al, Eur J Cancer, 2005, 41(2): 256-64). Ethical permission was obtained from the Local Ethics Committees at Lund and Linköping Universities.
Tissue blocks from 500 of the 564 patients could be retrieved for TMA-construction. All cases had been histopathologically re-evaluated on hematoxylin and eosin stained slides. TMA:s were constructed by sampling 2×0.6 mm cores per case from areas representative of invasive cancer, using an manual arraying device (MTA-1, Beecher Inc, WI, USA). […] IHC staining of ER and PR had been performed previously. In line with current clinical praxis, a cut-off at 10% positive nuclei was used to define hormone receptor positivity.
For statistical analyses, the cytoplasmic intensity (CI) level was evaluated, in line with what is described in Examples, Section 3 above. […] Two categories were defined: “HMGCR high” corresponding to CI=weak, moderate and strong and “HMGCR low” corresponding to CI=absent This classification of samples was used for RFS analysis according to the Kaplan-Meier estimator, and the log-rank test was used to compare survival in different strata. ER and PR negativity was defined as <10% positively staining nuclei, according to current clinical guidelines in Sweden. All statistical tests were two-sided, and p-values of <0.05 were considered significant. All calculations were made with the statistical package SPSS 17.0 (SPSS Inc. Illinois, USA).

[6] = system: breast cancer; conditions: patients with ER positive tumors, irrespective of lymph node status; five years adjuvant; cited from earlier work
[7] = system: breast cancer; conditions: cited from earlier work; remark: listed apart in the source
[8] = system: breast cancer; conditions: cited from earlier work; remark: listed apart in the source

CC[C@H](C)C(=O)O[C@H]1CCC=C2C=C[C@H](C)[C@H](CC[C@@H]3C[C@@H](O)CC(=O)O3)[C@H]21 [mevastatin]
induction of HMGCR activity [1]: 10- to 15 fold | induction of HMGCR mRNA expression [1]: 2.5- to 3.5 fold

CC/C(=C(\c1ccccc1)c1ccc(OCCN(C)C)cc1)c1ccccc1 [tamoxifen]
reduction in breast cancer specific mortality [2]: 34% | reduction in disease recurrence [2]: 41% | RFS of high vs low HMGCR mRNA expression ([3]; ER positive subjects only, adjuvant tamoxifen, FIG. 13b): improved RFS | RFS of high vs low HMGCR mRNA expression ([3]; all 155 patients, adjuvant tamoxifen 20 mg daily for 5 years, FIG. 13a): significantly better RFS | ERα positive patients who do not respond to tamoxifen treatment [4]: 30-40% | RFS of HMGCR high vs HMGCR low category ([5]; ER positive tamoxifen treated subjects, FIG. 2a): significantly better RFS | effect of tamoxifen treatment on recurrence free survival ([5]; HMGCR negative and ER negative subjects, FIG. 10b): no positive effect | effect of tamoxifen treatment on recurrence free survival ([5]; HMGCR positive and ER negative subjects, FIG. 9a): improved survival | effect of tamoxifen treatment on recurrence free survival ([5]; HMGCR positive and ER negative, lymph node positive patients, FIG. 9b): further enhanced | tamoxifen impact on survival (RFS) ([5]; HMGCR positive and PR negative subjects, FIG. 12, not statistically significant): trend of tamoxifen impact on survival | effect of tamoxifen treatment on recurrence free survival ([5]; HMGCR positive or ER positive subjects, FIG. 10a): significantly positive effect | response to tamoxifen treatment (RFS) ([5]; PR negative and HMGCR negative subjects, FIG. 11b): no response | response to tamoxifen treatment (RFS) ([5]; PR positive and HMGCR positive subjects, FIG. 11a): significant response | RFS associated with HMGCR expression ([5]; lymph node positive patients who received tamoxifen, FIG. 4a, p=0.001): improved RFS | outcome (RFS) of HMGCR positive and ER negative vs HMGCR negative and ER positive patients ([5]; node positive subjects, FIG. 6a): better outcome | RFS of HMGCR high vs HMGCR low category ([5]; patients treated with tamoxifen, FIG. 1a, p=0.001): significantly better RFS | effect of tamoxifen treatment on recurrence free survival ([5]; patients with HMGCR high tumors, irrespective of ER status, tamoxifen vs no adjuvant endocrine treatment, FIG. 8a): significantly improved survival | effect of tamoxifen treatment on recurrence free survival ([5]; patients with HMGCR low tumors, irrespective of ER status, FIG. 8b): no impact on survival | effect of HMGCR level on RFS ([5]; tamoxifen treated ER negative subjects, FIG. 7a): positive effect on RFS | outcome (RFS) of HMGCR positive and ER negative vs HMGCR negative and ER positive patients ([5]; FIG. 3a): better outcome | breast cancer mortality [6]: reduces the breast cancer mortality | recurrence-free and overall survival in tamoxifen treated patients ([7]; high expression (>75% nuclear fraction) of PR, irrespectively of ERα status): increased recurrence-free and overall survival | effect from tamoxifen treatment ([7]; lower PR level, <75%): no positive effect | disease free survival, tamoxifen vs no adjuvant treatment ([8]; older patients (≧60 years) with ERα+/PR+ tumors): significantly longer disease free survival | disease free survival, tamoxifen vs no adjuvant treatment ([8]; younger patients (<60 years)): no significant effect
